From ChEMBL document CHEMBL4616634, “4β-Hydroxywithanolide E from Goldenberry (Whole Fruits of Physalis peruviana L.) as a Promising Agent against Chronic Obstructive Pulmonary Disease” (J Nat Prod, 2020)
Calls of active or inactive are those of the source. The rule behind the calls is not given here.

What was measured:
RAW264.7 [1] = assay: Inhibition of LPS-induced IL-6 protein expression in mouse RAW264.7 cells at 0.5 to 4 uM preincubated for 1 hr followed by LPS-stimulation and measured after 16 hrs by immunoblot analysis; assay type: functional, cell-based
[2] = molecular target: T1, Nuclear factor erythroid 2-related factor 2 (Homo sapiens) (UniProt Q16236); assay: Activation of Nrf2 in human MDA-MB-231 cells assessed as increase in NQO1 protein level at 0.5 uM incubated for 16 hrs by immunoblot analysis; assay type: cell-based
T1 sequence (whole entry): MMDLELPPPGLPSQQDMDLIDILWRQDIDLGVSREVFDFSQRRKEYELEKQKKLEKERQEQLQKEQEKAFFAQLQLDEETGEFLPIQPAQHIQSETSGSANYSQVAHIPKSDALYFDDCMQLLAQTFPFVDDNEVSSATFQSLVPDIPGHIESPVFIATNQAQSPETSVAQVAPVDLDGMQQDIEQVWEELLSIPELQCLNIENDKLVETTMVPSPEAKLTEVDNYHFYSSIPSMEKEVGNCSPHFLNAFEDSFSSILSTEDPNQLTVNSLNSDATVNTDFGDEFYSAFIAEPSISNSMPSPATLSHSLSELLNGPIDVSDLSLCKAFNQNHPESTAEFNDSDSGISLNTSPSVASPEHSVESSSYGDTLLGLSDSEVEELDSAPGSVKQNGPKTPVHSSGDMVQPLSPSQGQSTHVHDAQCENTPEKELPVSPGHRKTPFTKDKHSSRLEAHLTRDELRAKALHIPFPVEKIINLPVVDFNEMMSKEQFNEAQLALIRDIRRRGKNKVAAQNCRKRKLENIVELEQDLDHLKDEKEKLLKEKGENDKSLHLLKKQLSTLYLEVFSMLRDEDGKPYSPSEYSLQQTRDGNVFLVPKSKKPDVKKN

[3] = molecular target: T1, Nuclear factor erythroid 2-related factor 2 (Homo sapiens); assay: Activation of Nrf2 in human BEAS2B cells harboring Keap1-C288S mutant assessed as increase in Nrf2 protein expression at 2.5 uM after12 hrs in presence of Keap1-siRNA by immunoblot analysis; assay type: cell-based
[4] = molecular target: T1, Nuclear factor erythroid 2-related factor 2 (Homo sapiens); assay: Activation of Nrf2 in human BEAS2B cells harboring Keap1-C151S mutant assessed as increase in Nrf2 protein expression at 2.5 uM after12 hrs in presence of Keap1-siRNA by immunoblot analysis; assay type: cell-based
Mus musculus [5] = assay: Antiinflammatory activity in C57BL/6 mouse model of CS-induced pulmonary injury assessed as decrease in NFkappaB p65 protein expression in lungs at 2 to 4 mg/kg, ip for 5 days by immunoblot analysis; assay type: functional, organism-based
RAW264.7 [6] = assay: Inhibition of LPS-induced IL-6 mRNA expression in mouse RAW264.7 cells at 0.5 to 4 uM preincubated for 1 hr followed by LPS-stimulation and measured after 6 hrs by qRT-PCR analysis; assay type: functional, cell-based
[7] = molecular target: T1, Nuclear factor erythroid 2-related factor 2 (Homo sapiens); assay: Activation of Nrf2 in human BEAS2B cells assessed as increase in Nrf2 protein expression at 5 uM incubated for 24 hrs by immunoblot analysis; assay type: cell-based
RAW264.7 [8] = assay: Inhibition of LPS-induced NFkappaB activation in mouse RAW264.7 cells assessed as decrease in phosphorylated NFkappaB p65 at 0.5 to 4 uM pre-incubated for 1 hr followed by LPS-stimulation and measured after 2 hrs by immunoblot analysis; assay type: cell-based
[9] = molecular target: T1, Nuclear factor erythroid 2-related factor 2 (Homo sapiens); assay: Activation of Nrf2 in human BEAS2B cells at 0.25 to 2 uM incubated for 12 hrs by immunoblot analysis relative to SF; assay type: cell-based
[10] = molecular target: T1, Nuclear factor erythroid 2-related factor 2 (Homo sapiens); assay: Activation of Nrf2 in human BEAS2B cells assessed as increase in Keap1 mRNA expression at 0.5 to 2 uM incubated for 24 hrs by qRT-PCR analysis; assay type: cell-based
[11] = molecular target: T1, Nuclear factor erythroid 2-related factor 2 (Homo sapiens); assay: Activation of Nrf2 in human MDA-MB-231 cells assessed as increase in luciferase activity incubated for 16 hrs by dual luciferase reporter gene assay; assay type: cell-based
RAW264.7 [12] = assay: Inhibition of LPS-induced iNOS protein expression in mouse RAW264.7 cells at 0.5 to 4 uM preincubated for 1 hr followed by LPS-stimulation and measured after 16 hrs by immunoblot analysis; assay type: functional, cell-based
[13] = molecular target: T1, Nuclear factor erythroid 2-related factor 2 (Homo sapiens); assay: Activation of Nrf2 in human BEAS2B cells assessed as increase in Keap1 protein expression at 5 uM incubated for 24 hrs by immunoblot analysis; assay type: cell-based
Mus musculus [14] = assay: Antioxidant Activity in C57BL/6 mouse model of CS-induced pulmonary injury assessed as decrease in MDA level in lungs at 2 to 4 mg/kg, ip for 5 days; assay type: functional, organism-based
Mus musculus [15] = assay: Antiinflammatory activity in C57BL/6 mouse model of CS-induced pulmonary injury assessed as reduction in TNFapha protein expression in lungs at 2 to 4 mg/kg, ip for 5 days by ELISA; assay type: functional, organism-based
[16] = molecular target: T1, Nuclear factor erythroid 2-related factor 2 (Homo sapiens); assay: Activation of Nrf2 in human MDA-MB-231 cells assessed as increase in ARE luciferase activity at > 4 uM incubated for 16 hrs by luciferase reporter gene assay; assay type: cell-based
Mus musculus [17] = assay: Antiinflammatory activity in C57BL/6 mouse model of CS-induced pulmonary injury assessed as increase in GCLM protein expression in lungs at 2 to 4 mg/kg, ip for 5 days by immunoblot analysis; assay type: functional, organism-based
[18] = molecular target: T1, Nuclear factor erythroid 2-related factor 2 (Homo sapiens); assay: Activation of Nrf2 in human MDA-MB-231 cells assessed as increase in ARE luciferase activity at 0.13 to 2 uM incubated for 16 hrs by luciferase reporter gene assay; assay type: cell-based
[19] = molecular target: T1, Nuclear factor erythroid 2-related factor 2 (Homo sapiens); assay: Activation of Nrf2 in human MDA-MB-231 cells assessed as increase in ARE luciferase activity at 2 uM incubated for 16 hrs by luciferase reporter gene assay; assay type: cell-based
MDA-MB-231 = assay: Cytotoxicity against human MDA-MB-231 cells assessed as decrease in cell viability at 0.13 to 10 uM after 24 to 48 hrs by MTT assay; assay type: cell-based; conditions: mda-mb-231, 10 µM

Compound: CC1=C(C)C(=O)O[C@H]([C@](C)(O)[C@]2(O)CC[C@@]3(O)[C@@H]4C[C@H]5O[C@]56[C@@H](O)C=CC(=O)[C@]6(C)[C@H]4CC[C@]23C)C1
- inhibition (RAW264.7 [1]): Active
- Activity [2]: Active
- Activity [3]: inactive
- Activity [4]: inactive
- Activity (Mus musculus [5]): Active
- inhibition (RAW264.7 [6]): Active
- Activity [7]: Active
- inhibition (RAW264.7 [8]): Active
- fold change (FC) [9]: 2
- Activity [10]: inactive
- Activity [11]: Dose-dependent effect
- inhibition (RAW264.7 [12]): Active
- Activity [13]: inactive
- Activity (Mus musculus [14]): Active
- Activity (Mus musculus [15]): Active
- Activity [16]: inactive
- Activity (Mus musculus [17]): Active
- Activity [18]: Active
- fold change (FC) [19]: 8.5
- Activity (MDA-MB-231): Toxic
